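1) Cells in 96-well plates. 2) Compound, 48 h, 5 concentrations. 3) Linear interpolation between surrounding doses. 4) Unreached endpoint = highest concentration. GI50 marks 50% less growth. The concentration for full growth arrest is given as TGI.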
Tests used:
Experiment in all cases: NCI-60 cell line screen, 48 h; in the data active = GI50 below about 0.43 µM; inactive = the rest
EKVX NSCLC = test system: EKVX NSCLC
PC-3 prostate = test system: PC-3 prostate
CCRF-CEM leukemia = test system: CCRF-CEM leukemia
HCT-116 colon = test system: HCT-116 colon
SNB-19 CNS = test system: SNB-19 CNS
NCI-H23 lung = test system: NCI-H23 lung
MALME-3M melanoma = test system: MALME-3M melanoma
SN12C renal = test system: SN12C renal
SF-268 CNS = test system: SF-268 CNS
OVCAR-3 ovarian = test system: OVCAR-3 ovarian
NCI-H226 lung = test system: NCI-H226 lung
RPMI-8226 leukemia = test system: RPMI-8226 leukemia
HOP-92 NSCLC = test system: HOP-92 NSCLC
UACC-257 melanoma = test system: UACC-257 melanoma
SR leukemia = test system: SR leukemia
IGROV1 ovarian = test system: IGROV1 ovarian
OVCAR-5 ovarian = test system: OVCAR-5 ovarian
786-0 renal = test system: 786-0 renal
SK-MEL-2 melanoma = test system: SK-MEL-2 melanoma
CAKI-1 renal = test system: CAKI-1 renal
SK-MEL-5 melanoma = test system: SK-MEL-5 melanoma
UO-31 renal = test system: UO-31 renal
SK-MEL-28 melanoma = test system: SK-MEL-28 melanoma
BT-549 breast = test system: BT-549 breast
LOX IMVI melanoma = test system: LOX IMVI melanoma
NCI-H460 lung = test system: NCI-H460 lung
SNB-75 CNS = test system: SNB-75 CNS
SK-OV-3 ovarian = test system: SK-OV-3 ovarian
KM12 colon = test system: KM12 colon
SF-539 CNS = test system: SF-539 CNS
COLO 205 colon = test system: COLO 205 colon
HCC-2998 colon = test system: HCC-2998 colon
HCT-15 colon = test system: HCT-15 colon
SW-620 colon = test system: SW-620 colon
RXF 393 renal = test system: RXF 393 renal
TK-10 renal = test system: TK-10 renal
T-47D breast = test system: T-47D breast
HT29 colon = test system: HT29 colon
ACHN renal = test system: ACHN renal
U251 CNS = test system: U251 CNS
M14 melanoma = test system: M14 melanoma
K-562 leukemia = test system: K-562 leukemia
MDA-MB-231 breast = test system: MDA-MB-231 breast
MCF7 breast = test system: MCF7 breast
HL-60(TB) leukemia = test system: HL-60(TB) leukemia
OVCAR-8 ovarian = test system: OVCAR-8 ovarian
DU-145 prostate = test system: DU-145 prostate
MDA-MB-435 = test system: MDA-MB-435
NCI/ADR-RES ovarian = test system: NCI/ADR-RES ovarian
SF-295 CNS = test system: SF-295 CNS
MOLT-4 leukemia = test system: MOLT-4 leukemia
A498 renal = test system: A498 renal
UACC-62 melanoma = test system: UACC-62 melanoma
OVCAR-4 ovarian = test system: OVCAR-4 ovarian
NCI-H522 lung = test system: NCI-H522 lung
HS 578T breast = test system: HS 578T breast
HOP-62 NSCLC = test system: HOP-62 NSCLC
A549 NSCLC = test system: A549 NSCLC

Cc1cc(=O)n2[nH]c(-c3ccc(C(C)(C)C)cc3)cc2n1
72.8 µM: TGI (SF-268 CNS)
43 µM: TGI (NCI-H522 lung)
93.8 µM: TGI (HL-60(TB) leukemia)
80.6 µM: TGI (NCI-H23 lung)
65.5 µM: TGI (SK-MEL-2 melanoma)
49.6 µM: TGI (UACC-257 melanoma)
76.9 µM: TGI (HOP-62 NSCLC)
64.5 µM: TGI (U251 CNS)
29 µM: TGI (MALME-3M melanoma)
12.1 µM: TGI (SK-MEL-5 melanoma)
59.1 µM: TGI (EKVX NSCLC)
75.9 µM: TGI (DU-145 prostate)
79.8 µM: TGI (T-47D breast)
61.6 µM: TGI (LOX IMVI melanoma)
46.8 µM: TGI (SNB-75 CNS)
51.6 µM: TGI (HOP-92 NSCLC)
38 µM: TGI (NCI-H460 lung)
inactive: GI50 (EKVX NSCLC) 3.88 µM | GI50 (PC-3 prostate) 4.13 µM | GI50 (CCRF-CEM leukemia) 4.19 µM | GI50 (HCT-116 colon) 8.25 µM | GI50 (SNB-19 CNS) 10.1 µM | GI50 (NCI-H23 lung) 4.03 µM | GI50 (MALME-3M melanoma) 2.76 µM | GI50 (SN12C renal) 12.3 µM | GI50 (SF-268 CNS) 7.85 µM | GI50 (OVCAR-3 ovarian) 3.24 µM | GI50 (NCI-H226 lung) 5.28 µM | GI50 (RPMI-8226 leukemia) 3.89 µM | GI50 (HOP-92 NSCLC) 6.6 µM | GI50 (UACC-257 melanoma) 4.32 µM | GI50 (SR leukemia) 8.03 µM | GI50 (IGROV1 ovarian) 7.36 µM | GI50 (OVCAR-5 ovarian) 17.7 µM | GI50 (786-0 renal) 10.3 µM | GI50 (SK-MEL-2 melanoma) 10.5 µM | GI50 (CAKI-1 renal) 2.6 µM | GI50 (SK-MEL-5 melanoma) 1.82 µM | GI50 (UO-31 renal) 3.17 µM | GI50 (SK-MEL-28 melanoma) 20.6 µM | GI50 (BT-549 breast) 17.4 µM | GI50 (LOX IMVI melanoma) 7.39 µM | GI50 (NCI-H460 lung) 3.03 µM | GI50 (SNB-75 CNS) 7.9 µM | GI50 (SK-OV-3 ovarian) 6.8 µM | GI50 (KM12 colon) 7.04 µM | GI50 (SF-539 CNS) 9.01 µM | GI50 (COLO 205 colon) 11.3 µM | GI50 (HCC-2998 colon) 8.59 µM | GI50 (HCT-15 colon) 5.79 µM | GI50 (SW-620 colon) 4.4 µM | GI50 (RXF 393 renal) 4.59 µM | GI50 (TK-10 renal) 3.5 µM | GI50 (T-47D breast) 4.43 µM | GI50 (HT29 colon) 5.12 µM | GI50 (ACHN renal) 5.65 µM | GI50 (U251 CNS) 3.24 µM | GI50 (M14 melanoma) 12.7 µM | GI50 (K-562 leukemia) 6.72 µM | GI50 (MDA-MB-231 breast) 13 µM | GI50 (MCF7 breast) 7.43 µM | GI50 (HL-60(TB) leukemia) 6.9 µM | GI50 (OVCAR-8 ovarian) 11.2 µM | GI50 (DU-145 prostate) 11.4 µM | GI50 (MDA-MB-435) 5.44 µM | GI50 (NCI/ADR-RES ovarian) 15.9 µM | GI50 (SF-295 CNS) 2.47 µM | GI50 (MOLT-4 leukemia) 6.56 µM | GI50 (A498 renal) 1.54 µM | GI50 (UACC-62 melanoma) 3.83 µM | GI50 (OVCAR-4 ovarian) 12.7 µM | GI50 (NCI-H522 lung) 3.42 µM | GI50 (HS 578T breast) 3.74 µM | GI50 (HOP-62 NSCLC) 17.5 µM | GI50 (A549 NSCLC) 11.6 µM
33.3 µM: TGI (HS 578T breast)
36.9 µM: TGI (A498 renal)
54.8 µM: TGI (RPMI-8226 leukemia)
> 100 µM: TGI (CCRF-CEM leukemia) | TGI (HCT-116 colon) | TGI (SNB-19 CNS) | TGI (SN12C renal) | TGI (NCI-H226 lung) | TGI (SR leukemia) | TGI (IGROV1 ovarian) | TGI (OVCAR-5 ovarian) | TGI (786-0 renal) | TGI (UO-31 renal) | TGI (SK-MEL-28 melanoma) | TGI (BT-549 breast) | TGI (SF-539 CNS) | TGI (COLO 205 colon) | TGI (HCC-2998 colon) | TGI (HCT-15 colon) | TGI (SW-620 colon) | TGI (HT29 colon) | TGI (ACHN renal) | TGI (M14 melanoma) | TGI (K-562 leukemia) | TGI (MDA-MB-231 breast) | TGI (MCF7 breast) | TGI (OVCAR-8 ovarian) | TGI (MDA-MB-435) | TGI (NCI/ADR-RES ovarian) | TGI (MOLT-4 leukemia) | TGI (UACC-62 melanoma) | TGI (OVCAR-4 ovarian) | TGI (A549 NSCLC)
32.7 µM: TGI (CAKI-1 renal)
43.5 µM: TGI (OVCAR-3 ovarian)
28.2 µM: TGI (RXF 393 renal)
22.7 µM: TGI (SF-295 CNS)
53.9 µM: TGI (KM12 colon)
40.6 µM: TGI (PC-3 prostate)
61.8 µM: TGI (TK-10 renal)
86 µM: TGI (SK-OV-3 ovarian)
